Experimental data from ChEMBL document CHEMBL1201862, “PubChem BioAssay data set” (2004).
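Each compound was tested at five concentrations against cells in 96-well plates for 48 hours. GI50 is the concentration that inhibits growth by half.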 Calls of active or inactive are those of the source. Rule as the data show it: active = GI50 up to about 1.1 µM and inactive = higher.

Assays:
Assay in all cases: inhibition of tumour cell growth, NCI panel, 48 h
[1] = tested on: Malme-3M
[2] = tested on: DU-145
[3] = tested on: LOX IMVI
[4] = tested on: HOP-92
[5] = tested on: UACC-257
[6] = tested on: KM12
[7] = tested on: SN12C
[8] = tested on: NCI/ADR-RES
[9] = tested on: UO-31
[10] = tested on: OVCAR-4
[11] = tested on: NCI-H460
[12] = tested on: OVCAR-8
[13] = tested on: SK-OV-3
[14] = tested on: SNB-75
[15] = tested on: 786-0
[16] = tested on: IGROV-1
[17] = tested on: SF-268
[18] = tested on: COLO 205
[19] = tested on: K562
[20] = tested on: HCC 2998
[21] = tested on: MDA-MB-435
[22] = tested on: HT-29
[23] = tested on: UACC-62
[24] = tested on: BT-549
[25] = tested on: SF-539
[26] = tested on: MOLT-4
[27] = tested on: ACHN
[28] = tested on: MDA-MB-231
[29] = tested on: T47D
[30] = tested on: HCT-15
[31] = tested on: EKVX
[32] = tested on: SR
[33] = tested on: NCI-H522
[34] = tested on: A498
[35] = tested on: HL-60
[36] = tested on: OVCAR-5
[37] = tested on: PC-3
[38] = tested on: SNB-19
[39] = tested on: U-251
[40] = tested on: SK-MEL-28
[41] = tested on: CCRF-CEM
[42] = tested on: OVCAR-3
[43] = tested on: NCI-H226
[44] = tested on: MCF7
[45] = tested on: RXF 393
[46] = tested on: TK-10
[47] = tested on: SF-295
[48] = tested on: CAKI-1
[49] = tested on: A549
[50] = tested on: NCI-H23
[51] = tested on: SW-620
[52] = tested on: HCT-116
[53] = tested on: HOP-62
[54] = tested on: M14
[55] = tested on: Hs-578T
[56] = tested on: RPMI-8226
[57] = tested on: SK-MEL-5
[58] = tested on: MDA-N

Measured: GI50

Cn1c(=O)oc2cc(C(O)CN3CCN(Cc4ccc5c(c4)OCO5)CC3)ccc21 (centres undefined)
> 100 µM: [30]
inactive: [1] > 100 µM | [2] > 100 µM | [3] > 100 µM | [4] > 100 µM | [5] > 100 µM | [6] > 100 µM | [7] > 100 µM | [8] > 100 µM | [9] > 100 µM | [10] > 100 µM | [11] > 100 µM | [12] > 100 µM | [13] > 100 µM | [14] 47 µM | [15] > 100 µM | [16] > 100 µM | [17] > 100 µM | [18] > 100 µM | [19] > 100 µM | [20] > 100 µM | [21] > 100 µM | [22] > 100 µM | [23] > 100 µM | [24] > 100 µM | [25] > 100 µM | [26] > 100 µM | [27] > 100 µM | [28] > 100 µM | [29] > 100 µM | [31] > 100 µM | [32] > 100 µM | [33] > 100 µM | [34] > 100 µM | [35] > 100 µM | [36] > 100 µM | [37] > 100 µM | [38] > 100 µM | [39] > 100 µM | [40] > 100 µM | [41] > 100 µM | [42] > 100 µM | [43] > 100 µM | [44] > 100 µM | [45] > 100 µM | [46] > 100 µM | [47] > 100 µM | [48] > 100 µM | [49] > 100 µM | [50] > 100 µM | [51] > 100 µM | [52] > 100 µM | [53] > 100 µM | [54] > 100 µM

CCCCOP(=O)(OCCCC)C(NS(=O)(=O)c1ccccc1)(C(=O)OCC)C(F)(F)F (centres undefined)
inactive: [55] 54.8 µM | [56] 24.5 µM | [1] 23.1 µM | [2] 45.3 µM | [3] 31.4 µM | [4] 23.8 µM | [5] 31.9 µM | [6] 31 µM | [7] 29.1 µM | [8] 26 µM | [9] > 100 µM | [10] 27.7 µM | [11] 37.6 µM | [12] 40.1 µM | [13] 58.5 µM | [14] 27.6 µM | [15] 33.3 µM | [16] 23.3 µM | [17] 43 µM | [18] 19.5 µM | [19] 20.5 µM | [20] > 100 µM | [21] 29.5 µM | [22] 40 µM | [23] 43.9 µM | [25] 19.5 µM | [26] 20.2 µM | [27] 27.9 µM | [28] 15.3 µM | [29] > 100 µM | [31] 30.1 µM | [32] 26.7 µM | [34] 34.5 µM | [35] 19.3 µM | [36] 31 µM | [37] 30.1 µM | [38] 29.2 µM | [39] 34.8 µM | [57] 18.1 µM | [40] 34.1 µM | [41] 27.2 µM | [58] 37.2 µM | [42] 25.1 µM | [43] 27.6 µM | [44] 16.6 µM | [45] 26.7 µM | [46] 33.9 µM | [47] 25.8 µM | [48] 16.4 µM | [49] 42.8 µM | [50] 33.6 µM | [52] 27.4 µM | [53] 22.7 µM | [54] 25.9 µM
39.7 µM: [30]
